pKi: −log10 of the molar value.
target: human Thrombin (Homo sapiens, UniProt P00734); assay: In vitro assay for inhibition of Thrombin (chromogenic or fluorogenic assay); format: biochemical; conditions: Example 2 chromogenic assay, other Examples fluorogenic assay, read-out: thrombin inhibitory Ki
Procedure: Thrombin inhibitory activity is measured by the ability to inhibit human α-thrombin in a chromogenic assay using N-p-tosyl-gly-pro-lys p-nitroanilide as the chromogenic substrate, or in a fluorogenic assay using Rhodamine 110, bis-(CBZ-L-valyl-L-prolyl-L-arginine amide) as the fluorogenic substrate.
The compound was diluted from a 10 mM stock solution in dimethylsulfoxide at appropriate concentrations. Assay was performed at room temperature using buffer consisting of: 50 mM HEPES, 150 mM NaCl, 5 mM CaCl2, 0.1% PEG, pH 7.4. containing human Thrombin (final conc. of 1 nM). Compound and enzyme were preincubated for 15 min prior to addition of the substrate (final conc. of 100 μM). The reaction was stopped after 30 min with the addition of soybean trypsin inhibitor or H-D-PHE-PRO-ARG-Chloromethylketone. […] To obtain IC50 values the data were analysed using ActivityBase® and XLfit®.
Compounds were diluted from a 10 mM stock solution in dimethylsulfoxide at appropriate concentrations. Assay was performed at room temperature using buffer consisting of: 50 mM HEPES, 150 mM NaCl, 5 mM CaCl2, 0.1% PEG, pH 7.4. containing human Thrombin (final conc. Of 0.2 nM). Compound and enzyme were preincubated for 15 min prior to addition of the substrate (final conc. of 10 μM). The reaction was stopped after 3 hrs with the addition of H-D-PHE-PRO-ARG-Chloromethylketone. […] To obtain IC50 values the data were analysed using ActivityBase® and XLfit®.

Structure (SMILES) | pKi
Cc1noc(C[C@@H](C(=O)N2CCOCC2)N2CC[C@H](NS(=O)(=O)CC(C)c3ccc(Cl)s3)C2=O)n1 (stereo partly drawn) [Example 60, 2-(5-chloro-2-thienyl)-N-{(3S)-1-[(1S)-1-[(3-methyl-1,2,4-oxadiazol-5-yl)methyl]-2-(4-morpholinyl)-2-oxoethyl]-2-oxo-3-pyrrolidinyl}-1-propanesulfonamide] | > 7.30
C/C(=C\S(=O)(=O)N[C@H]1CCN([C@@H](CCN2CCOCC2)C(=O)N2CCOCC2)C1=O)c1ccc(Cl)s1 [Example 96, (1E)-2-(5-chloro-2-thienyl)-N-{(3S)-1-[(1S)-3-(4-morpholinyl)-1-(4-morpholinylcarbonyl)propyl]-2-oxo-3-pyrrolidinyl}-1-propene-1-sulfonamide] | > 7.30
O=C(O)C[C@@H](C(=O)N1CCOCC1)N1CC[C@H](NS(=O)(=O)CCc2ccc(Cl)s2)C1=O [Example 46] | > 6.70
C[C@@H](C(=O)N1CCOCC1)N1CC[C@H](NS(=O)(=O)CCc2ccc(Cl)cc2)C1=O [Example 4, 2-(4-chlorophenyl)-N-{(3S)-1-[(1S)-1-methyl-2-morpholin-4-yl-2-oxoethyl]-2-oxopyrrolidin-3-yl}ethanesulfonamide] | > 7.30
CC[C@@H](C(=O)N1CCOCC1)N1CC[C@H](NS(=O)(=O)CCc2ccc(Cl)s2)C1=O [Example 5, 2-(5-chlorothien-2-yl)-N-{(3S)-1-[(1S)-1-(morpholin-4-ylcarbonyl)propyl]-2-oxopyrrolidin-3-yl}ethanesulfonamide] | > 7.60
CC[C@H](C)[C@@H](C(=O)N1CCOCC1)N1CC[C@H](NS(=O)(=O)/C=C(\F)c2ccc(Cl)cc2)C1=O [Example 30, (Z)-2-(4-chlorophenyl)-2-fluoro-N-{(3S)-1-[(1S,2S)-2-methyl-1-(morpholin-4-ylcarbonyl)butyl]-2-oxopyrrolidin-3-yl}ethenesulfonamide] | > 6.70
CN(C)CC[C@@H](C(=O)N1CCOCC1)N1CC[C@H](NS(=O)(=O)CCc2ccc(Cl)s2)C1=O [Example 93, 2-(5-chloro-2-thienyl)-N-{(3S)-1-[(1S)-3-(dimethylamino)-1-(4-morpholinylcarbonyl)propyl]-2-oxo-3-pyrrolidinyl}ethanesulfonamide] | > 7.00
COC[C@@H](C(=O)N1CCOCC1)N1CC[C@H](N(CC(=O)N(C)C)S(=O)(=O)CCc2ccc(Cl)s2)C1=O [Example 97, N^2-{[2-(5-chloro-2-thienyl)ethyl]sulfonyl}-N^1,N^1-dimethyl-N^2-{(3S)-1-[(1S)-1-[(methyloxy)methyl]-2-(4-morpholinyl)-2-oxoethyl]-2-oxo-3-pyrrolidinyl}glycinamide] | > 7.30
COC(=O)CN([C@H]1CCN([C@@H](C)C(=O)N2CCOCC2)C1=O)S(=O)(=O)CCc1ccc(Cl)s1 [Example 35, Methyl N-{[2-(5-chlorothien-2-yl)ethyl]sulfonyl}-N-{(3S)-1-[(1S)-1-methyl-2-morpholin-4-yl-2-oxoethyl]-2-oxopyrrolidin-3-yl}glycinate] | > 7.60
O=C(C(C1CCOCC1)N1CC[C@H](NS(=O)(=O)CCc2ccc(Cl)s2)C1=O)N1CCOCC1 (stereo partly drawn) [Example 67, 2-(5-chloro-2-thienyl)-N-{(3S)-1-[2-(4-morpholinyl)-2-oxo-1-(tetrahydro-2H-pyran-4-yl)ethyl]-2-oxo-3-pyrrolidinyl}ethanesulfonamide] | > 6.70
C[C@@H](C(=O)N1CCOCC1)N1CC[C@H](NS(=O)(=O)/C=C(/c2ccc(Cl)s2)C(F)(F)F)C1=O [Example 41, (1E)-2-(5-chlorothien-2-yl)-3,3,3-trifluoro-N-{(3S)-1-[(1S)-1-methyl-2-morpholin-4-yl-2-oxoethyl]-2-oxopyrrolidin-3-yl}prop-1-ene-1-sulfonamide] | > 7.00
CC[C@H](C)[C@@H](C(=O)N1CCOCC1)N1CC[C@H](NS(=O)(=O)CCc2ccc(Cl)cn2)C1=O [Example 48, 2-(5-chloro-2-pyridinyl)-N-{(3S)-1-[(1S,2S)-2-methyl-1-(4-morpholinylcarbonyl)butyl]-2-oxo-3-pyrrolidinyl}ethanesulfonamide] | > 7.60
